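Values below derive from 48-hour exposures of cells grown in 96-well plates, with endpoints linearly interpolated between the two concentrations bracketing the appropriate inhibition level. Abbreviation: GI50, concentration required for 50% inhibition of growth. TGI: concentration producing complete growth inhibition.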
What was measured:
Assay in all cases: DTP human tumour cell line panel, 48 h
A549 NSCLC = system: A549 NSCLC
COLO 205 colon = system: COLO 205 colon
HOP-92 NSCLC = system: HOP-92 NSCLC
HT29 colon = system: HT29 colon
SK-MEL-5 melanoma = system: SK-MEL-5 melanoma
UO-31 renal = system: UO-31 renal
RPMI-8226 leukemia = system: RPMI-8226 leukemia
DU-145 prostate = system: DU-145 prostate
HS 578T breast = system: HS 578T breast
MDA-MB-231 breast = system: MDA-MB-231 breast

Structure (SMILES)	TGI (A549 NSCLC) [µM]	TGI (COLO 205 colon) [µM]	TGI (HOP-92 NSCLC) [µM]	TGI (HT29 colon) [µM]	TGI (SK-MEL-5 melanoma) [µM]	TGI (UO-31 renal) [µM]	TGI (RPMI-8226 leukemia) [µM]	TGI (DU-145 prostate) [µM]	TGI (HS 578T breast) [µM]	TGI (MDA-MB-231 breast) [µM]	GI50 (A549 NSCLC) [µM]	GI50 (COLO 205 colon) [µM]	GI50 (HOP-92 NSCLC) [µM]	GI50 (HT29 colon) [µM]	GI50 (UO-31 renal) [µM]	GI50 (DU-145 prostate) [µM]	GI50 (HS 578T breast) [µM]	GI50 (MDA-MB-231 breast) [µM]	GI50 (RPMI-8226 leukemia) [µM]	GI50 (SK-MEL-5 melanoma) [µM]
C/C(=N/NC(=O)CC(=O)N(C(=O)c1ccccc1Cl)c1ccc(C)cc1)c1cc2ccccc2oc1=O	> 100	> 100	> 100	> 100	> 100	> 100														
COc1cc2cccc(N=Cc3c(Br)ccc(OC)c3OC(C)C)c2cc1OC	> 100	> 100		93.7	> 100	> 100	63.7													
CCCCCCCCCCCCCCCCS(=O)(=O)c1ccc(NN)cc1	> 10	> 10	> 10	> 10	> 10		> 10	> 10	> 10	> 10										
C=CC1=CC(C)C[C@]1(O)C(=O)OC (stereo not given in full)					> 100		< 0.01				> 100	> 100	> 100	> 100	> 100					
CC(=O)OCCC(O[Si](c1ccccc1)(c1ccccc1)C(C)(C)C)C(C)(C)O (stereo not given)	> 100	30.3	65.1	66.9	> 100	68.7	63													
c1cnc2[nH]cc(-c3csc(-c4cn(CCCN5CCCCC5)c5ccccc45)n3)c2c1	3.63		2.88	3.44		2.5	4.63	3.16	7.22	3.11	1.97		1.36	1.75	1.18	1.74	2.34	1.63	2.08	
CCOCNc1ccc(N2C(=O)/C(=C/c3ccc(N(CC)CC)cc3)N=C2c2ccccc2)cc1	> 100	> 100	12	> 100	> 100		> 100	> 100	> 100	49.3	11.4	86.6	2.25	6.88		> 100	17	13	2.83	22.9
CC[P+]1(CC)CCCC1	> 100	> 100		> 100	> 100	> 100	> 100													
COc1ccccc1/C=C\C(=O)c1ccccc1	41.9	24.3	31.5	17.3	17	17.3	24.7	20.5		30	19.5	11.9	11.9	3.9	4.58	8.38		12.5	2.8	5.01
C1=C2CNCC3=Cc4ccc5ccccc5c4OC23Oc2c1ccc1ccccc21	20.5	4.23	17.1		13.9	21.5	65.3	11.1	10.4	27.2	4.48	2.09	2.86		3.54	3.29	2.24	9.34	5.44	3.15
COc1cc([C@H]2c3[nH]c4ccccc4c3C[C@H]3COC(=O)N32)cc(OC)c1O	29.5	37.5	> 88	25.3	17.4	29.7	11.1		44.7	49.8										
CC(=O)[CH-]C(=O)c1ccccc1.CC(=O)[CH-]C(=O)c1ccccc1.[CH2-]CCC.[CH2-]CCC.[Sn+4]	4.13	2.47		3.39	1.97	2.66	0.567				1.93	0.984		1.73	1.37				0.22	0.625
COc1ccc2[nH]c3c(=O)[nH]ncc3c2c1	> 100	> 100	> 100	> 100	> 100	> 100	> 100													
COC(=O)c1cc2c3c(ccc2[nH]1)N(C(=O)c1cc2c4c(ccc2[nH]1)N(C(=O)c1cc2c5c(ccc2[nH]1)N(C(N)=O)CC5)CC4)CC3	> 100	> 36	7.31	> 100	8.68	8.47	> 100													
NC(=O)C(=O)n1ncc(Cl)c(Cl)c1=O	> 100	> 51.1	> 57.8	44.4	39.4	48.1	51.9	> 100	> 100											
COc1nc2c(c(O)c(C)c(=O)n2OC2OC(COC(C)=O)C(OC(C)=O)C(OC(C)=O)C2OC(C)=O)c(=O)n1C (stereo not given)	> 100	> 100		> 100	> 100	> 100														
CCN(CC)CCCCC1CCN(CC(=O)N2c3ccccc3NC(=O)CC2C)CC1 (stereo not given)	> 100	> 100	> 100	> 100	> 100	> 100	> 100													
COc1ccc(C2NCCc3c2[nH]c2ccccc32)cc1 (stereo not given)	> 100	> 100	> 100	> 100	66.1	> 100	> 100													
CCOC(=O)C[C@@]12CCCNC1(C)CCc1ccccc12 (stereo not given in full)	> 100	> 100		> 100	> 100	> 100	> 100													
C/C(=N/O)c1ccc2c(c1)C(=NO)c1cc(/C(C)=N/O)ccc1-2	68.6	38.5	47.4	30	28.5	28.3	> 100													
O=C(O)[C@@H]1CCCC[C@@H]1C(=O)N(C1CCCCC1)C1CCCCC1	> 100	> 100	> 100	> 100	> 100	> 100	> 100													
CC12OC(C(=O)C13CCC3)C1C(=O)c3ccccc3C(=O)C12 (stereo not given)	> 100	> 100	> 100	> 100		> 100	> 100		> 100	> 100	> 100	> 100	> 100	> 100	> 100		> 100	10.4	26.5	
